Results on 22 compounds are retold here after patent US9920074B2 (ACEA BIOSCIENCES INC., priority 2013, dated 2018).

Experiment [1] deals with Stat5 phosphorylation in NK-92 cells. Description: Western blotting assay for Stat5. The experiment is classed as cell-based. To be noted: NK92, 1 hour, IL-2 stimulation, read-out: Stat5 inhibition. The procedure:
(§1) All cell lines were obtained from the American Type Culture Collection and were maintained at 37° C. with 5% CO2. Ramos cell line was maintained in media supplemented with 10% fetal bovine serum, penicillin (100 units/mL) and streptomycin (100 μg/mL). NK-92 cell line was maintained in media supplemented with 10% fetal bovine serum and 10% horse serum, penicillin (100 units/mL) and streptomycin (100 μg/mL), IL-2 10 ng/mL. Goat F(ab′)2 Anti-Human IgM-UNLB was obtained from SouthernBiotech. IL-2 was obtained from Peprotech.
NK-92 cells were treated with compounds at the dosed indicated for 1 hour in incubator, followed by the IL-2 stimulation for 15 minutes. Cells were then collected and lysed to prepare the cellular extraction. Western blots were performed on cell lysate using Phospho-Jak3, Jak3, Phospho-Stat5, Stat5 antibodies (Cell Signaling Technology). The intensity of blotting band was acquired using Image Lab (Bio-Rad) software, and the IC50 of target was generated with GraphPad Prism.
Background: In western blotting, separated proteins are transferred to a membrane and probed.

In experiment [2] the target is T1, Btk (Tyr223) phosphorylation in Ramos cells (Homo sapiens, UniProt Q06187).
T1 construct: endogenous in cells; host or cells: Ramos cells (ATCC)
Description: Western blotting assay for Btk (Example 73). The experiment is classed as cell-based. To be noted: 45 min, 6 μg/mL anti-IgM, read-out: Btk Inhibition. The method, then: as §1
Ramos cells were treated with compounds at indicated doses for 45 min at room temperature, followed by stimulation of 6 μg/mL of anti-IgM for 30 min, and then lysed. Western blots were performed on the cell lysate using Phospho-Btk (Tyr223), Phospho-Btk (Tyr551), Btk, Phospho-PLCγ2 (Tyr1217), PLCγ2, Phospho-p44/42 MAPK (Erk1/2) (Thr202/Tyr204) and p44/42 MAPK (Erk1/2) antibodies (Cell Signaling Technology). The density of blotting band was acquired using ImageJ software, and the IC50 of Btk (Tyr223) phosphorylation was fitted using a non-linear regression model by GraphPad Prism.

T1 sequence (Q06187 whole entry): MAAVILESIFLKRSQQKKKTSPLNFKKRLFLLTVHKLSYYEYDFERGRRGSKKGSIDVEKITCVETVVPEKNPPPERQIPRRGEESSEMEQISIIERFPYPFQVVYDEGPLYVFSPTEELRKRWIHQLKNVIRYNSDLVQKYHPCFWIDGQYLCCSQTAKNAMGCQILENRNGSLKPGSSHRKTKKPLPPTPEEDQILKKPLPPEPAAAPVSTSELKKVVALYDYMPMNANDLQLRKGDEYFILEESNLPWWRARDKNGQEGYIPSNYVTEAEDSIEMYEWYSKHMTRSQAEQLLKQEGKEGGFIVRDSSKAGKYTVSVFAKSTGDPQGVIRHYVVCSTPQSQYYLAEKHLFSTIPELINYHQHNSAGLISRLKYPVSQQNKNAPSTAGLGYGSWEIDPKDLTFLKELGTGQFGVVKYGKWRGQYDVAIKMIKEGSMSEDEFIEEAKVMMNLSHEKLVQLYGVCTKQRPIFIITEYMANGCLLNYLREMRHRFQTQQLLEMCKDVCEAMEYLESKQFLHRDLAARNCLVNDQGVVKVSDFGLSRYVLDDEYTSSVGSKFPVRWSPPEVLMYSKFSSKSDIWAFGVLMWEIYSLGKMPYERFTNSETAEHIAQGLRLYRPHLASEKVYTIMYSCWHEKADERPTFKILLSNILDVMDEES

With `C=CC(=O)Nc1cccc(Oc2nc(Nc3ccc(N(C)CCOC)cc3)ncc2OC)c1` [Compound I-35a, N-(3-(5-methoxy-2-(4-((2-methoxyethyl)(methyl)amino)phenylamino)pyrimidin-4-yloxy)phenyl)acrylamide], the figures for the IC50 in experiment [1] and in experiment [2] were 200 to 400 nM and ≤ 10 nM, respectively.
For `C=CC(=O)Nc1cccc(Oc2nc(Nc3ccc(N(C4CC4)[C@H]4CCN(CCOC)C4)cc3)ncc2OC)c1` [Compound I-53a, (S)—N-(3-(2-(4-(cyclopropyl(1-(2-methoxyethyl)pyrrolidin-3-yl)amino)phenylamino)-5-methoxypyrimidin-4-yloxy)phenyl)acrylamide], in that order: ≥ 400 nM and ≤ 10 nM.
For `C=CC(=O)Nc1cccc(Oc2nc(Nc3ccc(N(C)CCOC)cc3)nc3[nH]ccc23)c1` [Compound I-41a, N-(3-(2-(4-((2-methoxyethyl)(methyl)amino)phenylamino)-7H-pyrrolo[2,3-d]pyrimidin-4-yloxy)phenyl)acrylamide], in that order: 200 to 400 nM and 10 to 100 nM.
For `C=CC(=O)Nc1cccc(Oc2nc(Nc3ccc(OCCS(C)(=O)=O)cc3)ncc2OC)c1` [Compound I-44a, N-(3-(5-methoxy-2-(4-(2-(methylsulfonyl)ethoxy)phenylamino)pyrimidin-4-yloxy)phenyl)acrylamide], in that order: 200 to 400 nM and ≤ 10 nM.
In the case of `C=CC(=O)Nc1cccc(Oc2nc(Nc3ccc4c(c3)CC(=O)N4CCOC)ncc2OC)c1` [Compound I-52a, N-(3-(5-methoxy-2-(1-(2-methoxyethyl)-2-oxoindolin-5-ylamino)pyrimidin-4-yloxy)phenyl)acrylamide], the IC50 is ≥ 400 nM in experiment [1] and ≤ 10 nM in experiment [2].
For `C=CC(=O)Nc1cccc(Oc2nc(Nc3ccc(N(CC)[C@H]4CCN(CCOC)C4)cc3)ncc2OC)c1` [Compound I-51a, (S)—N-(3-(2-(4-(ethyl(1-(2-methoxyethyl)pyrrolidin-3-yl)amino)phenylamino)-5-methoxypyrimidin-4-yloxy)phenyl)acrylamide], in that order: ≥ 400 nM and ≤ 10 nM.
For `C=CC(=O)Nc1cccc(Oc2nc(Nc3ccc4c(ccn4CCF)c3)ncc2OC)c1` [Compound I-43a, N-(3-(2-(1-(2-fluoroethyl)-1H-indol-5-ylamino)-5-methoxypyrimidin-4-yloxy)phenyl)acrylamide], in that order: 200 to 400 nM and ≤ 10 nM.
On to `C=CC(=O)Nc1cccc(Oc2nc(Nc3cc(F)c(OCCOC)c(F)c3)nc3[nH]ccc23)c1` [Compound I-37a, N-(3-(2-(3,5-difluoro-4-(2-methoxyethoxy)phenylamino)-7H-pyrrolo[2,3-d]pyrimidin-4-yloxy)phenyl)acrylamide], for which the IC50 in experiment [1] is ≥ 400 nM; in experiment [2] it was 10 to 100 nM.
For `C=CC(=O)Nc1cccc(Oc2nc(Nc3ccc(N4CCN(C)CC4)c(F)c3)ncc2O)c1` [Compound I-23a, N-(3-(2-(3-fluoro-4-(4-methylpiperazin-1-yl)phenylamino)-5-hydroxypyrimidin-4-yloxy)phenyl)acrylamide], in that order: ≥ 400 nM and 10 to 100 nM.
For `C=CC(=O)Nc1cccc(Oc2nc(Nc3ccc(NCCOC)cc3)ncc2OC)c1` [Compound I-32a, N-(3-(5-methoxy-2-(4-(2-methoxyethylamino)phenylamino)pyrimidin-4-yloxy)phenyl)acrylamide], the results for the IC50 in experiment [1] and in experiment [2] were ≥ 400 nM and ≤ 10 nM, respectively.
For the compound `C=CC(=O)Nc1cccc(Oc2nc(Nc3ccc(N4CCN(CCOC)CC4)c(F)c3)nc3[nH]ccc23)c1` [Compound I-48a, N-(3-(2-(3-fluoro-4-(4-(2-methoxyethyl)piperazin-1-yl)phenylamino)-7H-pyrrolo[2,3-d]pyrimidin-4-yloxy)phenyl)acrylamide], the IC50 is 200 to 400 nM in experiment [1] and ≤ 10 nM in experiment [2].
For `C=CC(=O)Nc1cccc(Oc2nc(Nc3ccc(N4CCN(CCS(C)(=O)=O)CC4)cc3)ncc2OC)c1` [Compound I-54a, N-(3-(5-methoxy-2-(4-(4-(2-(methylsulfonyl)ethyl)piperazin-1-yl)phenylamino)pyrimidin-4-yloxy)phenyl)acrylamide], in that order: ≥ 400 nM and ≤ 10 nM.
For `C=CC(=O)Nc1cccc(Oc2nc(Nc3ccc4c(c3)CN(CCOC)C4)ncc2OC)c1` [Compound I-50a, N-(3-(5-methoxy-2-(2-(2-methoxyethyl)isoindolin-5-ylamino)pyrimidin-4-yloxy)phenyl)acrylamide], in that order: ≥ 400 nM and 10 to 100 nM.
For `C=CC(=O)Nc1cccc(Oc2nc(Nc3ccc(N(C)[C@H]4CCN(CCS(C)(=O)=O)C4)cc3)ncc2OC)c1` [Compound I-57a, (S)—N-(3-(5-methoxy-2-(4-(methyl(1-(2-(methylsulfonyl)ethyl)pyrrolidin-3-yl)amino)phenylamino)pyrimidin-4-yloxy)phenyl)acrylamide], in that order: 200 to 400 nM and ≤ 10 nM.
For the compound `C=CC(=O)Nc1cccc(Oc2nc(Nc3ccc(N(CCC)CCOC)cc3)ncc2OC)c1` [Compound I-38a, N-(3-(5-methoxy-2-(4-((2-methoxyethyl)(propyl)amino)phenylamino)pyrimidin-4-yloxy)phenyl)acrylamide], the IC50 in experiment [1] is ≥ 400 nM; in experiment [2], 10 to 100 nM.
For `C=CC(=O)Nc1cccc(Oc2nc(Nc3ccc4c(c3)CCN4CCOC)nc3[nH]ccc23)c1` [Compound I-36a, N-(3-(2-(1-(2-methoxyethyl)indolin-5-ylamino)-7H-pyrrolo[2,3-d]pyrimidin-4-yloxy)phenyl)acrylamide], in that order: 200 to 400 nM and 10 to 100 nM.
For `C=CC(=O)Nc1cccc(Oc2nc(Nc3ccc(N(C)CCOC)nc3)nc3[nH]ccc23)c1` [Compound I-46a, N-(3-(2-(6-((2-methoxyethyl)(methyl)amino)pyridin-3-ylamino)-7H-pyrrolo[2,3-d]pyrimidin-4-yloxy)phenyl)acrylamide], in that order: ≥ 400 nM and 10 to 100 nM.
For the compound `C=CC(=O)Nc1cccc(Oc2nc(Nc3ccc(N4CCN(CCOC)CC4)cc3)nc3[nH]ccc23)c1` [Compound I-47a, N-(3-(2-(4-(4-(2-methoxyethyl)piperazin-1-yl)phenylamino)-7H-pyrrolo[2,3-d]pyrimidin-4-yloxy)phenyl)acrylamide], the IC50 was 200 to 400 nM in experiment [1] and ≤ 10 nM in experiment [2].
`C=CC(=O)Nc1cccc(Oc2nc(Nc3ccc(N[C@H]4CCN(CCOC)C4)cc3)ncc2OC)c1` [Compound I-30a, (S)—N-(3-(5-methoxy-2-(4-(1-(2-methoxyethyl)pyrrolidin-3-ylamino)phenylamino)pyrimidin-4-yloxy)phenyl)acrylamide]: the IC50 in experiment [1] is ≤ 200 nM; in experiment [2], ≤ 10 nM.
For `C=CC(=O)Nc1cccc(Oc2nc(Nc3ccc(N(C)[C@H]4CCN(CCOC)C4)cc3)ncc2OC)c1` [Compound I-42a, (S)—N-(3-(5-methoxy-2-(4-((1-(2-methoxyethyl)pyrrolidin-3-yl)(methyl)amino)phenylamino)pyrimidin-4-yloxy)phenyl)acrylamide], in that order: ≥ 400 nM and ≤ 10 nM.
For `C=CC(=O)Nc1cccc(Nc2nc(Nc3ccc(N[C@H]4CCN(CCOC)C4)cc3)ncc2OC)c1` [Compound I-31a, (S)—N-(3-(5-methoxy-2-(4-(1-(2-methoxyethyl)pyrrolidin-3-ylamino)phenylamino)pyrimidin-4-ylamino)phenyl)acrylamide], in that order: ≥ 400 nM and ≤ 10 nM.
For the compound `C=CC(=O)Nc1cccc(Oc2nc(Nc3ccc4c(c3)CCN4C(C)=O)ncc2OC)c1` [Compound I-56a, N-(3-(2-(1-acetylindolin-5-ylamino)-5-methoxypyrimidin-4-yloxy)phenyl)acrylamide], the results for the IC50 in experiment [1] and in experiment [2] were 200 to 400 nM and ≤ 10 nM, respectively.
